In patent US9732094B2, “Arylquinazolines” (Merck Patent GmbH, priority 2013, dated 2017):
Like-named read-outs stand apart in the source and are kept apart here.

Tests used:
DNA-PK = DNA-PK (Homo sapiens (Human), UniProt P78527); experiment: DNA-PK assay (biochemical), flashplate 33P-ATP kinase assay
How it was run: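 Radiometric kinase reaction in streptavidin-coated flashplates, stopped with 200 mM EDTA, then 30 min room-temperature incubation and saline washes.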

[1] = target: DNA-PK phosphorylation at serine 2056 (Homo sapiens (Human), UniProt P78527); experiment: DNA-PK phosphorylation at serine 2056 (cellular), bleomycin-treated HCT116 cells, ELISA; assay type: cell-based; settings: HCT116 cells, read-out: IC50 pDNA-PK
How it was run: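 After overnight seeding, HCT116 cells received compound with 10 μM bleomycin for 6 h; phospho-DNA-PK ELISA signals were scaled to total DNA-PKcs, DMSO serving as blank.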

Kv11.1 (hERG) = Kv11.1 (hERG) (Homo sapiens (Human), UniProt Q12809); experiment: Kv11.1 (hERG) ion channel activity (patch clamp assay), HEK293 cells transfected with hERG gene
[2] = cellular, 10 μM bleomycin, six hours
[3] = read-out: Ki [Kv1.11 hERG], patch clamp, HEK293 transfected with hERG gene
[4] = Ki [Kv1.11 hERG], patch clamp, HEK293 transfected with hERG gene
[5] = read-out: Ki [Kv1.11 hERG], Table 5

Sequence of Kv11.1 (hERG) (Q12809 whole entry): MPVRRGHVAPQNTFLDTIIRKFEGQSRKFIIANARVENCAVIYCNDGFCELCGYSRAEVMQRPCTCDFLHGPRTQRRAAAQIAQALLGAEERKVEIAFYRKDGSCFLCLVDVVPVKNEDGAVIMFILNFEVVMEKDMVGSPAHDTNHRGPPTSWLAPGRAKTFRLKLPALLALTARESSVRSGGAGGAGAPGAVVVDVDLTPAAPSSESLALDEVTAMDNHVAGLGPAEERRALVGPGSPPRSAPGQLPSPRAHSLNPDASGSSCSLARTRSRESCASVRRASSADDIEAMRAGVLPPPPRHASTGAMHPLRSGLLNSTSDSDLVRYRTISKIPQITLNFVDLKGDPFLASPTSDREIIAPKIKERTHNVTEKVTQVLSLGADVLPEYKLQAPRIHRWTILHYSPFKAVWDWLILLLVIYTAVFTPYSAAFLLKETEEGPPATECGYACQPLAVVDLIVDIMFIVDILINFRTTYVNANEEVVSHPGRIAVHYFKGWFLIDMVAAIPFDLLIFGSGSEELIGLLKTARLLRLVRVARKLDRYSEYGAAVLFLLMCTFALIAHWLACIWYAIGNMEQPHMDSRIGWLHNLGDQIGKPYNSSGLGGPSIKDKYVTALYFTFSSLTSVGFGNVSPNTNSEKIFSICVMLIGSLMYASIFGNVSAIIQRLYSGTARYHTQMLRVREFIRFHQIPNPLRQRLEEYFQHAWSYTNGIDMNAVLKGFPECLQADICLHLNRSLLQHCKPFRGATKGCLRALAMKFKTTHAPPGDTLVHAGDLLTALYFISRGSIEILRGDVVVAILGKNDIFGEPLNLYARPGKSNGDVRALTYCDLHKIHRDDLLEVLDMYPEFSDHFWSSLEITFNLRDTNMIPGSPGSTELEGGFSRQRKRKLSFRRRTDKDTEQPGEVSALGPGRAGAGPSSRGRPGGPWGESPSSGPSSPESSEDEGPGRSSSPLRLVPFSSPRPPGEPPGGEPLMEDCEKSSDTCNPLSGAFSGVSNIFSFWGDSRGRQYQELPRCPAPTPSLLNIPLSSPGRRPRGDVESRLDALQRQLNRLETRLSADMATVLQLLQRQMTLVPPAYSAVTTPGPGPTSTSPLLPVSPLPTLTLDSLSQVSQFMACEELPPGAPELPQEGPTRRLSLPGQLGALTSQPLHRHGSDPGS

Structure (SMILES) | IC50 (DNA-PK; enzymatic, 5 μM ATP) | IC50 [1, 2] | IC50 (DNA-PK; Table 5) | IC50 ([1]; Table 5) | Ki (Kv11.1 (hERG); [3]) | Ki (Kv11.1 (hERG); [4]) | Ki (Kv11.1 (hERG); [5]) | Ki (Kv11.1 (hERG); Ki [Kv1.11 hERG], Table 5)
COc1ccc(C(O)c2cc(-c3ncnc4cc(N5CCOCC5)ccc34)c(F)cc2F)cc1 (stereo not drawn) [Example 120, [2.4-Difluoro-5-(7-morpholin-4-yl-quinazolin-4-yl)-phenyl]-(4-methoxyphenyl)-methanol] | 0.007 to 0.03 µM | 0.5 to 5 µM | – | – | < 10 µM | – | – | –
OC(c1ccc(F)c(-c2ncnc3cc(N4CCOCC4)ccc23)c1)c1ccc(OC(F)F)nn1 (stereo not drawn) [Example 121, (6-Difluoro-methoxy-pyridazin-3-yl)-[4-fluoro-3-(7-morpholin-4-yl-quinazolin-4-yl)-phenyl]methanol] | 0.003 to 0.007 µM | 0.5 to 5 µM | – | – | – | 15 to 25 µM | – | –
C#CC(O)(c1ccc(OC)nn1)c1cc(-c2ncnc3cc(N4CCOCC4)ccc23)c(F)cc1Cl (stereo not drawn) [Example 122, 1-[2-Chloro-4-fluoro-5-(7-morpholin-4-yl-quinazolin-4-yl)-phenyl]-1-(6-methoxy-pyridazin-3-yl)-prop-2-yn-1-ol] | 0.007 to 0.03 µM | 0.5 to 5 µM | – | – | – | 10 to 15 µM | – | –
COc1ccc(C(O)(c2cc(-c3ncnc4cc(N5CCOCC5)ccc34)c(F)cc2Cl)C(F)F)nn1 (stereo not drawn) [Example 123, 1-[2-Chloro-4-fluoro-5-(7-morpholin-4-yl-quinazolin-4-yl)-phenyl]-2,2-difluoro-1-(6-methoxy-pyridazin-3-yl)-ethanol] | 0.007 to 0.03 µM | 10 to 30 µM | – | – | > 25 µM | – | – | –
COc1ccc(C(O)c2cc(-c3ncnc4cc(N5CCOCC5)ccc34)c(F)cc2F)c(F)c1 (stereo not drawn) [Example 124, [2,4-Difluoro-5-(7-morpholin-4-yl-quinazolin-4-yl)-phenyl]-(2-fluoro-4-methoxy-phenyl)methanol] | 0.007 to 0.03 µM | 0.5 to 5 µM | – | – | < 10 µM | – | – | –
COc1ccc(C(C)(O)c2cc(-c3ncnc4cc(N5CCOCC5)ccc34)c(F)cc2Cl)nn1 (stereo not drawn) [Example 125, 1-[2-Chloro-4-fluoro-5-(7-morpholin-4-yl-quinazolin-4-yl)-phenyl]-1-(6-methoxy-pyridazin-3-yl)-ethanol] | 0.003 to 0.007 µM | 10 to 30 µM | – | – | – | 15 to 25 µM | – | –
CN(C)CCOc1ccc(C(O)c2ccc(F)c(-c3ncnc4cc(N5CCOCC5)ccc34)c2)nn1 (stereo not drawn) [Example 133, [6-(2-Dimethyl-amino-ethoxy)-pyridazin-3-yl]-[4-fluoro-3-(7-morpholin-4-yl-quinazolin-4-yl)-phenyl]methanol] | 0.007 to 0.03 µM | 5 to 10 µM | – | – | > 25 µM | – | – | –
OC(c1ccc(F)c(-c2ncnc3cc(C4=CCOCC4)ccc23)c1)c1nccs1 (stereo not drawn) [Example 139, {3-[7-(3,6-Dihydro-2H-pyran-4-yl)-quinazolin-4-yl]-4-fluoro-phenyl}-thiazol-2-ylmethanol] | – | – | 0.007 to 0.03 µM | 10 to 30 µM | – | – | > 25 µM | –
OC(c1ccc(F)c(-c2ncnc3cc(N4CCOCC4)ncc23)c1)c1nccs1 (stereo not drawn) [Example 140, [4-Fluoro-3-(7-morpholin-4-yl-pyrido[4,3-d}-pyrimidin-4-yl)-phenyl]thiazol-2-yl-methanol] | – | – | > 0.03 µM | 10 to 30 µM | – | – | – | 15 to 25 µM
OCc1csc(C(O)c2cc(-c3ncnc4cc(N5CCOCC5)ncc34)c(F)cc2Cl)n1 (stereo not drawn) [Example 141, [2-chloro-4-fluoro-5-(7-morpholin-4-ylpyrido[4,3-d]pyrimidin-4-yl)phenyl]-(4-hydroxymethylthiazol-2-yl)methanol] | – | – | > 0.03 µM | 10 to 30 µM | – | – | – | 15 to 25 µM
OCc1csc(C(O)c2cc(-c3ncnc4cc(N5CCOCC5)ccc34)c(F)cc2Cl)n1 (stereo not drawn) [Example 142, [2-Chloro-4-fluoro-5-(7-morpholin-4-yl-quinazolin-4-yl)-phenyl]-(4-hydroxymethyl-thiazol-2-yl)-methanol] | – | – | < 0.003 µM | 0.5 to 5 µM | – | – | < 10 µM | –
CNCc1csc(C(O)c2cc(-c3ncnc4cc(N5CCOCC5)ccc34)c(F)cc2Cl)n1 (stereo not drawn) [Example 143, [2-Chloro-4-fluoro-5-(7-morpholin-4-ylquinazolin-4-yl)phenyl]-(4-methylaminomethylthiazol-2-yl)methanol] | – | – | 0.007 to 0.03 µM | 5 to 10 µM | – | – | – | 10 to 15 µM
OC(c1cccc(-c2ncnc3cc(N4CCOCC4)ccc23)c1)c1nccs1 (stereo not drawn) [Example 148, [3-(7-Morpholin-4-ylquinazolin-4-yl)-phenyl]thiazol-2-yl-methanol] | – | – | 0.007 to 0.03 µM | 10 to 30 µM | – | – | – | 10 to 15 µM

Continued, in another order:

IC50 (DNA-PK; enzymatic, 5 μM ATP) | IC50 [1, 2] | IC50 (DNA-PK; Table 5) | IC50 ([1]; Table 5) | Structure (SMILES) | Ki (Kv11.1 (hERG); [3]) | Ki (Kv11.1 (hERG); [4]) | Ki (Kv11.1 (hERG); [5]) | Ki (Kv11.1 (hERG); Ki [Kv1.11 hERG], Table 5)
0.003 to 0.007 µM | 10 to 30 µM | – | – | COC(=O)COc1ccc(C(O)c2cc(-c3ncnc4cc(N5CCOCC5)ccc34)c(F)cc2Cl)nn1 (stereo not drawn) [Example 114, (6-{[2-Chloro-4-fluoro-5-(7-morpholin-4-yl-quinazolin-4-yl)-phenyl]hydroxy-methyl}pyridazin-3-yl-oxy)acetic acid methyl ester] | > 25 µM | – | – | –
0.003 to 0.007 µM | 0.5 to 5 µM | – | – | OC(c1ccc(OCC(F)(F)F)nn1)c1cc(-c2ncnc3cc(N4CCOCC4)ccc23)c(F)cc1Cl (stereo not drawn) [Example 115, [2-Chloro-4-fluoro-5-(7-morpholin-4-yl-quinazolin-4-yl)-phenyl]-[6-(2,2,2-trifluoroethoxy)-pyridazin-3-yl]-methanol] | – | 10 to 15 µM | – | –
< 0.003 µM | 0.5 to 5 µM | – | – | OCCOc1ccc(C(O)c2cc(-c3ncnc4cc(N5CCOCC5)ccc34)c(F)cc2Cl)nn1 (stereo not drawn) [Example 116, 2-(6-{[2-Chloro-4-fluoro-5-(7-morpholin-4-yl-quinazolin-4-yl)-phenyl]hydroxy-methyl}pyridazin-3-yl-oxy)ethanol] | > 25 µM | – | – | –
0.003 to 0.007 µM | 0.5 to 5 µM | – | – | Nc1nccnc1C(O)c1cc(-c2ncnc3cc(N4CCOCC4)ccc23)c(F)cc1Cl (stereo not drawn) [Example 117, (3-Amino-pyrazin-2-yl)-[2-chloro-4-fluoro-5-(7-morpholin-4-yl-quinazolin-4-yl)-phenyl]methanol] | – | 15 to 25 µM | – | –
0.003 to 0.007 µM | 0.5 to 5 µM | – | – | N#Cc1ccc(C(O)c2cc(-c3ncnc4cc(N5CCOCC5)ccc34)c(F)cc2Cl)nn1 (stereo not drawn) [Example 118, 6-{[2-Chloro-4-fluoro-5-{7-morpholin-4-yl-quinazolin-4-yl)-phenyl]hydroxy-methyl}pyridazine-3-carbonitrile] | – | 15 to 25 µM | – | –
< 0.003 µM | < 0.5 µM | – | – | N#CCOc1ccc(C(O)c2cc(-c3ncnc4cc(N5CCOCC5)ccc34)c(F)cc2Cl)nn1 (stereo not drawn) [Example 119, (6-{(2-Chloro-4-fluoro-5-(7-morpholin-4-yl-quinazolin-4-yl)-phenyl] hydroxy-methyl}pyridazin-3-yl-oxy)acetonitrile] | – | 15 to 25 µM | – | –
< 0.003 µM | 0.5 to 5 µM | – | – | COc1ccc(C(O)c2cc(-c3ncnc4cc(N5CCOCC5)sc34)c(F)cc2Cl)nn1 (stereo not drawn) [Example 128, (2-Chloro-4-fluoro-5-(6-morpholin-4-ylthieno[3,2-d}-pyrimidin-4-yl)-phenyl]-(6-methoxy-pyridazin-3-yl)-methanol] | – | 15 to 25 µM | – | –
0.003 to 0.007 µM | 0.5 to 5 µM | – | – | COc1ccc(C(O)c2cc(-c3nc(Cl)nc4cc(N5CCOCC5)ccc34)c(F)cc2Cl)nn1 (stereo not drawn) [Example 132, [2-Chloro-5-(2-chloro-7-morpholin-4-yl-quinazolin-4-yl)-4-fluorophenyl]-(6-methoxy-pyridazin-3-yl)-methanol] | > 25 µM | – | – | –
0.007 to 0.03 µM | 0.5 to 5 µM | – | – | CCOc1ccc(C(O)c2ccc(F)c(-c3ncnc4cc(N5CCOCC5)ccc34)c2)nn1 (stereo not drawn) [Example 134, (6-Ethoxy-pyridazin-3-yl)-[4-fluoro-3-(7-morpholin-4-yl-quinazolin-4-yl)-phenyl]methanol] | – | 10 to 15 µM | – | –
